From patent US11261201B2 (priority 2018, dated 2022)
Converted amounts (≈) assume the structure as drawn. Structures can show the parent of a compound that is named as a salt. Where two headings read alike, the source gives them in different places.

What was measured:
H37RvMA = assay: Tuberculosis Alamar Blue/Resazurin assay (MIC); type: cell-based; details: read-out: WT H37Rv MTB Activity
A. baumannii = assay: Gram negative MIC protocol (OD600, LB, 24 h); details: for MIC: Acinetobacter baumannii; for MIC A. baumannii LB Media: OD600
Method: (§1) Overnight bacterial cultures were grown in LB with no added antibiotics at 37° C. with shaking. A 1:1000 dilution of these cultures into LB was exposed to concentration gradients of compounds in 96-well plates (100 μL per well assay volume). Resulting plates were incubated at 37° C. for 24 h without shaking, and OD600 was measured at the end of the incubation. MICs were determined as the lowest concentrations at which OD600 remained at baseline.

E. coli = assay: Gram negative MIC protocol (OD600, LB, 24 h); details: for MIC: Escherichia coli; for MIC E. coli delta-TolC LB Media / MIC WT E. coli LB Media: OD600
Method: as §1

[1] = read-out: MIC A. baumannii LB Media, A. baumannii, LB media, 24 h, OD600
[2] = read-out: MIC E. coli delta-TolC LB Media, E. coli delta-TolC strain, LB media, 24 h, OD600
[3] = read-out: MIC WT E. coli LB Media, wild-type E. coli, LB media, 24 h, OD600
[4] = Mycobacterium tuberculosis, H37RV, WT H37Rv MTB
[5] = read-out: MIC E. coli delta-TolC LB Media, E. coli delta-TolC, LB media, OD600
[6] = read-out: MIC WT E. coli LB Media, WT E. coli, LB media, OD600
[7] = Mycobacterium tuberculosis, H37RV
[8] = read-out: MIC A. baumannii LB Media

| SMILES | MIC (A. baumannii; [1]) | MIC (E. coli; [2]) | MIC (E. coli; [3]) | MIC (H37RvMA; [4]) | MIC (E. coli; [5]) | MIC (E. coli; [6]) | other results |
| --- | --- | --- | --- | --- | --- | --- | --- |
| Cl.c1ccc(CNCC2CCCc3ccccc32)cc1 (stereo not drawn) [B214, N-benzyl-1-(1,2,3,4-tetrahydronaphthalen-1-yl)methanamine hydrochloride] | > 300 µM | > 300 µM | > 300 µM | – | – | – | MIC (H37RvMA; WT H37Rv MTB): >150 µM |
| CC(O)CCOc1ccccc1CNC(C)CC1CCCCC1 (stereo not drawn) [B363] | 150 µM (≈ 47.9 µg/mL) | 3 µM (≈ 0.958 µg/mL) | 150 µM (≈ 47.9 µg/mL) | > 150 µM | – | – | – |
| Cc1cccc(COc2ccccc2CNC(C)CC2CCCCC2)c1 (stereo not drawn) [B461, 1-cyclohexyl-N-(2-((3-methylbenzyl)oxy)benzyl)propan-2-amine] | 33 µM (≈ 11.6 µg/mL) | – | – | 10 µM (≈ 3.52 µg/mL) | < 1 µM | 33 µM (≈ 11.6 µg/mL) | – |
| COC1CCCCC1CCNCc1ccccc1 (stereo not drawn) [B190] | > 300 µM | – | – | > 150 µM | > 300 µM | > 300 µM | – |
| OC1(CNCc2ccccc2)C2C3CC4C5C3CC2C5C41 (stereo not drawn) [B37] | > 150 µM | – | – | 150 µM (≈ 42.2 µg/mL) | > 150 µM | > 150 µM | – |
| C1=C(CCNCc2ccncc2)CCCC1 [B15] | – | – | – | – | – | – | MIC (H37RvMA; WT H37Rv MTB): >150 µM; MIC A. baumannii LB Media (A. baumannii): >150 µM; MIC E. coli delta-TolC LB Media (E. coli): >150 µM; MIC WT E. coli LB Media (E. coli): >150 µM |
| CC1CCC(CCNCc2ccccc2)CC1 (stereo not drawn) [B221] | 220 µM (≈ 50.9 µg/mL) | 150 µM (≈ 34.7 µg/mL) | 300 µM (≈ 69.4 µg/mL) | 150 µM (≈ 34.7 µg/mL) | – | – | – |
| CCc1cnc(COc2ccccc2CNC(C)CC2CCCCC2)o1 (stereo not drawn) [B268] | > 150 µM | 7 µM (≈ 2.5 µg/mL) | > 150 µM | 91 µM (≈ 32.4 µg/mL) | – | – | – |
| c1ccc(CNCCc2ccc3c(c2)CCO3)cc1 [B24] | – | – | – | – | > 150 µM | > 150 µM | MIC (H37RvMA; [7]): > 150 µM; MIC (A. baumannii; [8]): > 150 µM |
| CC(NCc1ccccc1)C1CC2CCC1CC2 (stereo not drawn) [B62] | > 150 µM | – | – | > 150 µM | > 150 µM | > 150 µM | – |
| FC(F)(F)c1ccccc1CNCCC1CCCCC1 [B225, 2-cyclohexyl-N-(2-(trifluoromethyl)benzyl)ethanamine hydrochloride] | 300 µM | > 150 µM | > 300 µM | > 150 µM | – | – | – |
| CC(CC1CCCCC1)NCc1ccccc1OCCOC1CCCC1 (stereo not drawn) [B260] | > 150 µM | 7 µM (≈ 2.52 µg/mL) | > 150 µM | 91 µM (≈ 32.7 µg/mL) | – | – | – |
| O=C1Cc2ccccc2CN1CCC1CCOCC1 [B430, 2-(2-(tetrahydro-2H-pyran-4-yl)ethyl)-1,4-dihydroisoquinolin-3(2H)-one] | > 150 µM | – | – | 55.1 µM (≈ 14.3 µg/mL) | > 150 µM | > 150 µM | – |
| CC1CC1C(C)NCc1ccccc1 (stereo not drawn) [B69] | > 150 µM | – | – | > 150 µM | > 150 µM | > 150 µM | – |
| c1ccc(OCC2CCCCO2)c(CNCCC2CCCCC2)c1 (stereo not drawn) [B328, 2-cyclohexyl-N-(2-((tetrahydro-2H-pyran-2-yl)methoxy)benzyl)ethanamine hydrochloride] | > 150 µM | 55 µM | > 150 µM | 150 µM | – | – | – |
| c1ccc(CNCCC2CCCC2)cc1 [B128] | > 150 µM | – | – | > 150 µM | > 150 µM | > 150 µM | – |
| CC(CC1CCCCC1)NCc1ccccc1OCc1ccccc1 (stereo not drawn) [B409, N-(2-(benzyloxy)benzyl)-1-cyclohexylpropan-2-amine] | 55 µM (≈ 18.6 µg/mL) | – | – | 12.2 µM (≈ 4.12 µg/mL) | 3 µM (≈ 1.01 µg/mL) | 55 µM (≈ 18.6 µg/mL) | – |
| c1ccc(CNCCN2CCCC3CCCC32)cc1 (stereo not drawn) [B126] | > 150 µM | – | – | > 150 µM | > 150 µM | > 150 µM | – |
| c1ccc(CNCC2C3CCc4ccccc4C32)cc1 (stereo not drawn) [B45] | > 150 µM | – | – | 91 µM (≈ 24 µg/mL) | > 150 µM | > 150 µM | – |
| CC(CC1CCCCC1)NCc1ccccc1OCC(=O)N(C)C (stereo not drawn) [B320] | > 150 µM | 20 µM (≈ 6.65 µg/mL) | > 150 µM | > 150 µM | – | – | – |
| Nc1ccccc1CNCCC1CCCCC1 [B235, 2-((2-cyclohexylethylamino)methyl)aniline hydrochloride] | > 300 µM | 96 µM | 96 µM | > 150 µM | – | – | – |

| SMILES | MIC (A. baumannii; [1]) | MIC (E. coli; [2]) | MIC (E. coli; [3]) | MIC (H37RvMA; [4]) | MIC (E. coli; [5]) | MIC (E. coli; [6]) | other results |
| --- | --- | --- | --- | --- | --- | --- | --- |
| CC(Cc1ccc2ccccc2c1)NCc1ccccc1 (stereo not drawn) [B194] | – | – | – | – | – | – | MIC (H37RvMA): 150 µM (≈ 41.3 µg/mL); MIC A. baumannii LB Media (A. baumannii): 300 µM (≈ 82.6 µg/mL); MIC E. coli delta-TolC LB Media (E. coli): 170 µM (≈ 46.8 µg/mL); MIC WT E. coli LB Media (E. coli): >300 µM |
| COC(=O)C(C)Oc1ccccc1CNC(C)CC1CCCCC1 (stereo not drawn) [B327] | > 150 µM | 7 µM (≈ 2.33 µg/mL) | > 150 µM | > 150 µM | – | – | – |
| CC(CC1CCCCC1)NCc1ccccc1OCc1nnn(C)n1 (stereo not drawn) [B322] | 150 µM (≈ 51.5 µg/mL) | 4 µM (≈ 1.37 µg/mL) | 150 µM (≈ 51.5 µg/mL) | > 150 µM | – | – | – |
| c1ccc(CNCCc2ccc3[nH]ncc3c2)cc1 [B115] | > 150 µM | – | – | > 150 µM | > 150 µM | > 150 µM | – |
| CC(CC1CCCCC1)NCc1ccccc1OCCC(N)=O (stereo not drawn) [B285] | > 150 µM | 55 µM (≈ 17.5 µg/mL) | 91 µM (≈ 29 µg/mL) | > 150 µM | – | – | – |
| COc1ccc2cccc(CCNCc3ccccc3)c2c1 [B199] | 170 µM (≈ 49.5 µg/mL) | 170 µM (≈ 49.5 µg/mL) | > 300 µM | 150 µM (≈ 43.7 µg/mL) | – | – | – |
| c1ccc(CNCC2CCCCC2)cc1 [B9] | > 150 µM | – | – | > 150 µM | > 150 µM | > 150 µM | – |
| COC(=O)C(CC1CCCCC1)NCc1ccccc1 (stereo not drawn) [B203, methyl 2-(benzylamino)-3-cyclohexylpropanoate hydrochloride] | > 300 µM | 170 µM | > 300 µM | > 150 µM | – | – | – |
| Cc1ccc2ncc(CCNCc3ccccc3)cc2c1 [B117] | > 150 µM | – | – | > 150 µM | > 150 µM | > 150 µM | – |
| CC(Cc1ccc2ccccc2c1)NCc1ccccc1 (stereo not drawn) [B106] | > 150 µM | – | – | – | > 150 µM | > 150 µM | MIC (H37RvMA; [7]): 150 µM (≈ 41.3 µg/mL) |
| COC(=O)C1CCCCC1CCNCc1ccccc1 (stereo not drawn) [B185] | > 300 µM | – | – | > 150 µM | > 300 µM | > 300 µM | – |
| C1=C(CCNCc2ccncc2)CCCC1 [B3] | > 150 µM | – | – | > 150 µM | > 150 µM | > 150 µM | – |
| Fc1ccc(CC2(NCc3ccccc3)CC2)cc1 [B97] | > 150 µM | – | – | – | > 150 µM | > 150 µM | MIC (H37RvMA; [7]): > 150 µM |
| c1cc(CNCCC2CCCCC2)c2sccc2c1 [B354] | > 150 µM | 150 µM (≈ 41 µg/mL) | > 150 µM | 150 µM (≈ 41 µg/mL) | – | – | – |
| CC(C)CNCc1ccccc1 [B136] | > 150 µM | – | – | > 150 µM | > 150 µM | > 150 µM | – |
| C[C@H](CC1=CCCCC1)NCc1ccccc1 [B170] | – | – | – | – | > 300 µM | > 300 µM | MIC (H37RvMA; [7]): > 150 µM; MIC (A. baumannii; [8]): > 300 µM |
| c1ccc(CNCCc2ccc3c(c2)COC3)cc1 [B65] | – | – | – | – | > 150 µM | > 150 µM | MIC (H37RvMA; [7]): > 150 µM; MIC (A. baumannii; [8]): > 150 µM |
| OC1CCCCC1CCNCc1ccccc1 (stereo not drawn) [B189] | > 300 µM | – | – | > 150 µM | > 300 µM | > 300 µM | – |
| c1ccc(-c2ccc3ccccc3c2)c(CNCCC2CCCCC2)c1 [B234, 2-cyclohexyl-N-(2-(naphthalen-2-yl)benzyl)ethanamine hydrochloride] | 31 µM | 10 µM | > 300 µM | 55 µM | – | – | – |
| Nc1cccc(CNCCC2CCCCC2)c1 [B366] | > 150 µM | 150 µM (≈ 34.9 µg/mL) | 150 µM (≈ 34.9 µg/mL) | > 150 µM | – | – | – |
| C1=C(CNCc2ccccc2)CCCC1 [B63] | > 150 µM | – | – | > 150 µM | > 150 µM | > 150 µM | – |
